Data as given in patent US12139481B2, “Compositions comprising macrocycle derivatives incorporating bridged macrocycles and methods of producing and using same” (Southwestern Oklahoma State University, priority 2015, dated 2024).
Values joined by “and” are separate entries in the source; they are usually repeats but may differ in a detail not shown here. Equal values may be shown once.

Legend:
[1] = test system: L. donovani promastigotes; test: Antileishmanial Alamar Blue assay on promastigotes; assay type: cell-based, Leishmania donovani; settings: for X more potent than Pentamidine: L. donovani, ratio of molar IC50 to Pentamidine; for L. donovani IC50 / IC50: promastigotes, 48 hours, Alamar Blue; for IC50: read-out: L. donavani IC50
Outline: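 Alamar Blue fluorescence (544/590 nm) quantified growth after 48 hours at 26° C of compound-treated promastigotes. Parasites were seeded at 5×10^5/mL in RPMI 1640 plus 10% FCS; drug range 50-3.1 μg/mL, and IC50 derived by plotting percent growth against test concentration.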

[2] = test system: S. mansoni newly transformed schistosomula (NTS); test: In vitro testing on Schistosoma mansoni newly transformed schistosomula (NTS), viability score; assay type: cell-based; settings: NTS S. mansoni, 33 μM, 72 h
Method: Assays were prepared according to the laboratory SOP for the lab of Dr. Jennifer Keiser (Swiss Tropical and Public Health Institute, Basel). Harvested S. mansoni cercariae (Liberian strain) obtained from infected Biomphalaria glabrata snails were mechanically transformed into newly transformed schistosomula (NTS) following standard procedures. Briefly, snails were placed under light in the morning to stimulate cercarial shedding. The cercarial suspension was collected, cooled for 30 minutes, and then vigorously pipetted (30×) and vortexed (3 minutes). The suspension was then placed in the incubator (37° C. and 5% CO2) for 30 minutes, and the vortexing and pipetting steps were repeated. The transformation was complete at this point, and the tails were separated from the heads by rinsing three times with cold HBSS. NTS were then incubated overnight in culture medium overnight and used the next day.
The original stock compounds (which were not already dissolved) were dissolved in dimethyl sulfoxide (DMSO) to a concentration of 10 mM. 100 NTS were placed in each well of a 96-well plate with culture medium, and the test compound for a final well volume of 250 μl. […] NTS incubated with no more than 1% DMSO served as control. NTS were kept in an incubator at 37° C. and 5% CO2 for up to 72 hours. After 72 hours, the condition of the NTS was microscopically evaluated using a scale from 3 (normal activity and no tegument alteration) to 0 (dead, completely granulated).

C. glabrata ATCC 90030 = test: Antifungal broth dilution assay against C. glabrata (modified CLSI); assay type: cell-based, Candida glabrata; settings: for C. glabrata IC50 / IC50: in vitro; for IC50: converted with molecular weight; for X more potent than Amphotericin B: molar IC50 ratio versus amphotericin B
Outline: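 Growth read by optical density at 530 nm, duplicate wells, 1% final DMSO. Staphylococcus spp.: Mueller-Hinton pH 7.3, 5.0×10^5 CFU/ml, 35 °C for 16-20 h; Candida spp.: RPMI/dextrose/glutamine/MOPS pH 6.0, 1.5×10^3 CFU/ml, 35 °C for 46-50 h. Reported values are 50% inhibition versus controls, no-growth MIC, and killing MFC/MBC.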

[3] = test system: Cryptococcus neoformans ATCC 90113; test: Antimicrobial microdilution assay against Cryptococcus neoformans (modified CLSI/NCCLS, optical density); assay type: cell-based; settings: for X more potent than Amphotericin B: C. neoformans, ratio of molar IC50 to Amphotericin B; for C. neoformans IC50 / IC50: in vitro, C. neoformans ATCC 90113; for IC50: read-out: C. neoformans IC50 (mol/L)
Outline: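 Fungicidal endpoint taken by subculturing 5 μL from each clear well onto agar, MFC being the lowest concentration with no regrowth. Duplicate wells of serially diluted compound (20% DMSO/saline) in RPMI pH 6.0, read at 630 nm pre- and post-incubation, under modified CLSI methods. IC50 means 50% growth inhibition against controls.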

| Molecule | X more potent than Pentamidine [1] | L. donovani IC50 [1] | IC50 [1] | Effect at 72 h (%) [2] | C. glabrata IC50 (C. glabrata ATCC 90030) | IC50 (C. glabrata ATCC 90030) | X more potent than Amphotericin B (C. glabrata ATCC 90030) | X more potent than Amphotericin B [3] | C. neoformans IC50 [3] | IC50 [3] |
| --- | --- | --- | --- | --- | --- | --- | --- | --- | --- | --- |
| CC(=O)[O-].F[P-](F)(F)(F)(F)F.[Ni+2].c1ccc(CN2CCN3CCN(CC2)CCN(Cc2ccccc2)CC3)cc1 [TC10, [Ni(Bn2Bcyclen)(OAc)]PF6] | 0.31 | 10.95 mg/L | 17.1 µM | 30.63% | – | – | – | – | – | – |
| CC(=O)[O-].F[P-](F)(F)(F)(F)F.[Zn+2].c1ccc(CN2CCN3CCN(CC2)CCN(Cc2ccccc2)CC3)cc1 [RM42, [Zn(Bn2Bcyclen)(OAc)]PF6] | 0.73 | 4.73 mg/L | – | 30.63% | – | – | – | – | – | – |
| CC(=O)[O-].CC(=O)[O-].CC(=O)[O-].F[P-](F)(F)(F)(F)F.F[P-](F)(F)(F)(F)F.F[P-](F)(F)(F)(F)F.O.[Ni+2].[Ni+2].[Ni+2].c1c(CN2CCNCCN3CCN(CC3)CC2)cc(CN2CCNCCN3CCN(CC3)CC2)cc1CN1CCNCCN2CCN(CC2)CC1 [CDG030, [Ni3(tris-SB-Cyclens)0Ac)3][PF6]3•H2O] | – | – | – | 18.02% | 4.170 mg/L | 2.75 µM | 0.52 | 0.45 | ≤ 0.800 mg/L | 0.528 µM |
| [Ni(Bn1Me1Bcyclam)(OAc)]PF6•0.5NH4PF6 [TRH11B] | 0.09 | 38.64 mg/L | 59.7 µM | 24.32% | – | – | – | – | – | – |
| [Cu3(tris-SB-Cyclams)(OAc)3][PF6]3•1.5NH4PF6 [CDG027] | – | – | – | 11.71% | 1.630 mg/L | 0.886 µM | 1.60 | 0.34 | 1.280 mg/L | 0.696 µM |
| CN1CCCN2CCN(CCCN(Cc3cc(CN4CCCN5CCN(C)CCCN(CC5)CC4)cc(CN4CCCN5CCN(C)CCCN(CC5)CC4)c3)CC2)CC1 [BNS018, tris-CB-cyclams] | 0.57 | 7.73 mg/L | 9.25 µM | 11.71% | – | – | – | 2.21 | 0.090 mg/L | 0.108 µM |
| Cl.Cl.Cl.Cl.Cl.Cl.Cl.Cl.O.O.O.O.c1cc(CN2CCCN3CCN(CCCNCC2)CC3)cc(CN2CCCN3CCN(CCCNCC2)CC3)c1 [KS226, m-SB-cyclams HCl salt] | 0.28 | 17.61 mg/L | 19.2 µM | 5.41% | – | – | – | 3.13 | 0.070 mg/L | 0.0762 µM |
| CC(=O)[O-].CC(=O)[O-].CC(=O)[O-].CN1CCN2CCN(CC1)CCN(Cc1cc(CN3CCN4CCN(C)CCN(CC4)CC3)cc(CN3CCN4CCN(C)CCN(CC4)CC3)c1)CC2.F[P-](F)(F)(F)(F)F.F[P-](F)(F)(F)(F)F.F[P-](F)(F)(F)(F)F.O.O.O.O.O.O.[Ni+2].[Ni+2].[Ni+2] [BNS19] | – | – | – | 18.02% | 4.900 mg/L | 2.97 µM | 0.48 | – | – | – |
| [Zn3(tris-SB-Cyclens)(OAc)3][PF6]3•0.5NH4PF6 [CDG023] | – | – | – | 18.02% | – | – | – | 0.29 | 1.310 mg/L | 0.819 µM |
| CC(=O)[O-].CC(=O)[O-].CN1CCCN2CCN(CCCN(Cc3cccc(CN4CCCN5CCN(C)CCCN(CC5)CC4)c3)CC2)CC1.F[P-](F)(F)(F)(F)F.F[P-](F)(F)(F)(F)F.[Cu+2].[Cu+2] [RM52, [Cu2(m-CB-Cyclams)(OAc)2][PF6]2] | – | – | – | 5.41% | 4.940 mg/L | 4.42 µM | 0.32 | 0.32 | 0.820 mg/L | 0.733 µM |
| CN1CCN2CCN(C)CCN(CC1)CC2.F[P-](F)(F)(F)(F)F.[Cl-].[Cl-].[Mn+3] [CNV06, [Mn(Bcyclen)Cl2]PF6] | – | – | – | 0.00% | – | – | – | 0.02 | 6.390 mg/L and 5.579 mg/L | 12.8 µM and 11.2 µM |
| m-CB-cyclens HCl salt [DJC05C] | 0.21 | 22.89 mg/L | 25.7 µM | 5.41% | – | – | – | 0.23 | 0.940 mg/L | 1.06 µM |
| CC(=O)[O-].CC(=O)[O-].CN1CCN2CCN(CC1)CCN(Cc1cccc(CN3CCN4CCN(C)CCN(CC4)CC3)c1)CC2.F[P-](F)(F)(F)(F)F.F[P-](F)(F)(F)(F)F.[Zn+2].[Zn+2] [DJC07, [Zn2(m-CB-Cyclens)(OAc)2][PF6]2] | – | – | – | 0.00% | – | – | – | 0.03 | 7.410 mg/L | – |
| CC(=O)[O-].F[P-](F)(F)(F)(F)F.[Co+2].c1ccc(CN2CCCN3CCN(CCCN(Cc4ccccc4)CC3)CC2)cc1 [TC11, [Co(Bn2Bcyclam)(OAc)]PF6] | 0.10 | 35.29 mg/L | 52.7 µM | 24.32% | – | – | – | – | – | – |
| CC(=O)[O-].CC(=O)[O-].CN1CCCN2CCN(CCCN(Cc3cccc(CN4CCCN5CCN(C)CCCN(CC5)CC4)c3)CC2)CC1.F[P-](F)(F)(F)(F)F.F[P-](F)(F)(F)(F)F.F[P-](F)(F)(F)(F)F.F[P-](F)(F)(F)(F)F.[Co+3].[Co+3] [CDG010, [Co2(m-CB-Cyclams)(OAc)2][PF6]4] | – | – | – | 11.71% | – | – | – | 0.35 | 0.960 mg/L | 0.686 µM |
| CC(=O)[O-].CC(=O)[O-].CN1CCN2CCN(CC1)CCN(Cc1cccc(CN3CCN4CCN(C)CCN(CC4)CC3)c1)CC2.F[P-](F)(F)(F)(F)F.F[P-](F)(F)(F)(F)F.[Cu+2].[Cu+2] [DJC06A, [Cu2(m-CB-Cyclens)(OAc)2][PF6]2] | – | – | – | 5.41% | – | – | – | 0.04 | 6.710 mg/L | 6.32 µM |
| CC(=O)[O-].CC(=O)[O-].CN(C)C=O.F[P-](F)(F)(F)(F)F.F[P-](F)(F)(F)(F)F.[Co+2].[Co+2].c1cc(CN2CCNCCN3CCN(CC3)CC2)ccc1CN1CCNCCN2CCN(CC2)CC1 [OB30, [Co2(p-SB-Cyclens)(OAc)2][PF6]2•DMF] | – | – | – | 5.41% | 0.800 mg/L | 0.729 µM | 1.95 | 0.33 | ≤ 0.800 mg/L | 0.729 µM |
| CC(=O)[O-].CC(=O)[O-].CC(=O)[O-].F[P-](F)(F)(F)(F)F.F[P-](F)(F)(F)(F)F.F[P-](F)(F)(F)(F)F.F[P-](F)(F)(F)(F)F.[NH4+].[Zn+2].[Zn+2].[Zn+2].c1c(CN2CCCN3CCN(CCCNCC2)CC3)cc(CN2CCCN3CCN(CCCNCC2)CC3)cc1CN1CCCN2CCN(CCCNCC1)CC2 [CDG026, [Zn3(tris-SB-Cyclams)(OAc)3][PF6]3•NH4PF6] | – | – | – | 11.71% | 3.420 mg/L | 1.94 µM | 0.73 | 0.04 | 10.030 mg/L | 5.69 µM |
| CC(=O)[O-].CC(=O)[O-].CC(=O)[O-].F[P-](F)(F)(F)(F)F.F[P-](F)(F)(F)(F)F.F[P-](F)(F)(F)(F)F.[Co+2].[Co+2].[Co+2].c1c(CN2CCCN3CCN(CCCNCC2)CC3)cc(CN2CCCN3CCN(CCCNCC2)CC3)cc1CN1CCCN2CCN(CCCNCC1)CC2 [CDG025, [Co3(tris-SB-Cyclams)(OAc)3][PF6]3] | – | – | – | 18.02% | 1.500 mg/L | 0.948 µM | 1.50 | 0.21 | 1.800 mg/L | 1.14 µM |
